The nature of this assay: Binding Inhibition Assay: Jurkat cells expressing CXCR4 were washed once with assay buffer (Hanks' balanced salt solution with 20 mM HEPES buffer and 0.2% bovine serum albumin, pH 7.4) and then incubated for 15 min at room temperature with the test compounds diluted in assay buffer at dose-dependent concentrations. Subsequently, CXCL12-AF647 (25 ng/mL) was added to the compound-incubated cells. The cells were incubated for 30 min at room temperature. Thereafter, the cells were washed twice in assay buffer, fixed in 1% paraformaldehyde in PBS, and analyzed on the FL4 channel of a FACSCalibur flow cytometer equipped with a 635-nm red diode lase. On the technique in general: A flow cytometer gives signals particle by particle.

Molecules are shown by their SMILES.

For the compound `CC[C@H](O)c1c([C@H]2CCC[C@@H](c3ncccc3C)N2C)nc2cccc(N3CCN(C)CC3)n12`, the IC50 lay in the range of 0.01 to 100 nM.

By IC50 is commonly meant the point on the concentration scale where inhibition reaches its midpoint.

The values above are taken from ChEMBL document CHEMBL5727929, “CXCR4 inhibitors and uses thereof” (2020).
